{
  "source": "patent US11352374B2",
  "about": "(University of Alaska Anchorage, priority 2015, dated 2022)",
  "key": {"[1]": {"assay": "CO generated at different pHs, CO meter", "assay_type": "physicochemical", "conditions": "compound per FIG. 10 legend", "experimental": "FIG. 10 graphically depicts the percent CO generated by CORCB-1 in different pHs monitored by the CO meter. CORCB was dissolved in water with adjusted pH before incubation in 37° C. After 12 hours, CO gas in the head space was analyzed using a CO meter.\nCO releasing property of CORCBs is not limited only to the neutral environment. It works in any pH ranging from 2 to 12 as evident in FIG. 10. […] CO is released at the highest amount in the acidic condition of pH 2 with more than 25% in 12 hours."}, "[2]": {"test_system": "normal fibroblast cells (Hs 895.Sk)", "assay": "Anti-tumor effect of CORCB-1 in the presence of ROS, normal cells", "assay_type": "cell-based, human", "conditions": "1 mM CORCB-1 + 0.2 mM H2O2, 6 days", "experimental": "(§1) To further test the anti-tumor effect of CORCBs in the presence of ROS, fibroblast tumor cells (Hs 895.T) and normal fibroblast cells (Hs 895.Sk) were incubated with 1 mM of CORCB-1 and 0.2 mM of H2O2 mixed in the DMEM media without FBS. Media was exchanged every 2 days for longer incubation periods such as 4 and 6 days. […] Both tumor and normal cells are close to 100% viable at 2 days, but for longer treatment periods, tumor cells growth rate declines and normal cell growth remains steady. […] Normal cells are preserved under stressed condition while tumor cells are destroyed."}, "[3]": {"assay": "Anti-tumor effect of CORCB-1 in the presence of ROS, normal cells", "assay_type": "cell-based, human", "conditions": "human, Hs 895.Sk normal fibroblast cells; 1 mM CORCB-1 + 0.2 mM H2O2, 2 days; read-out: % viable normal cells at 2 days", "experimental": "as §1"}, "[4]": {"test_system": "LPS-induced TNF-α production in RAW264.7 cells", "assay": "LPS-induced TNF-α production with CORCB plus H2O2", "assay_type": "cell-based, mouse", "method": "RAW264.7 cells at the density of 2×10^4 cells per well in 96-well plate were treated with varying concentrations of CORCB plus different concentrations of H2O2."}, "[5]": {"test_system": "horse Mb", "assay": "Myoglobin (Mb) assay: deoxy-Mb to carboxy-Mb", "assay_type": "biochemical", "conditions": "in one hour; 69 μM deoxy-Mb, 50× excess compound, 37° C.; compound per FIG. 2 legend", "experimental": "Since there was no literature that reported the use of CO meter with CO releasing molecules, to further confirm that CORCBs release CO, Mb assay was performed using the standard procedure used with other CO releasing compounds. In brief, 1 mM horse Mb in 50 mM sodium phosphate buffer (pH 7.4) was deoxygenated using 3 equivalents of sodium dithionite. Excess dithionite was removed by desalting column. Deoxy-Mb at the concentration of 69 μM was mixed with CORM (50× excess) and incubated in 37° C. Visible spectra in the range of 550-600 nm were recorded at every 10 minutes. Overlaid spectra of these samples show a gradual transformation of deoxy-Mb to carboxy-Mb (FIG. 2). The percent CO released calculated was approximately 1% in one hour."}, "[6]": {"assay": "CO released on auto-decomposition in water at 37° C., head space measured with CO meter", "assay_type": "physicochemical", "experimental": "(§2) A test to confirm that CO is one of the decomposition products from CORCBs is done by utilizing commercially available CO meter. Four mole of the compounds at the concentrations of 6-12 mg/mL in aqueous solution was incubated at 37° C. in a sealed vessel with 50 mL gas space. CO meter was used to read the concentration of liberated CO gas from the solution. Measurement by CO meter in ppm, after converting to the micromole amount, was used for calculating the percent CO released based on the original amount of compound.\nCO liberated from the molecules and coming out to the head space are detected and quantified by using CO meter."}, "[7]": {"assay": "physchem", "experimental": "The kinetics of compound decomposition was followed by observing the ratio of the amount of free amine group to the original compound using ^1H NMR. For instance, Hexamethylenetetramine carboxyborane (CORCB-1) in D2O at the concentration of 12 mg/mL was incubated at 37° C. in the standard NMR tube. ^1H NMR spectra were obtained at different time points to study the kinetics of product formation. […] The ratio of integrated peaks were used for determining the percent of each species present and plotted as a function of time to show the kinetics of auto-decomposition.\n^1H, ^11B, and ^13C NMR spectra were recorded at different time points to study the kinetics as well as to observe transformation of CORCB-1 into the products.\nIn order to determine whether CO is produced in physiological condition, CORCB acid forms were dissolved in aqueous solution at neutral pH. The solution was then subjected to incubation at 37° C. for extended period of time. For studies using NMR, CORCBs were dissolved in D2O. The kinetics of CORCB molecules breaking down to produce CO is determined by taking ^1H NMR spectra at various time points (FIG. 3).\nCORCB sodium and ammonium salts were also tested for decomposition by using ^1H NMR spectroscopy. Samples were set up as in Example 1 and rate of decomposition measured (FIG. 4)."}, "[8]": {"test_system": "LPS-induced TNF-α production in mouse macrophage cells (RAW264.7)", "assay": "Inhibition of LPS-induced TNF-α production (ELISA)", "assay_type": "cell-based", "method": "To test the anti-inflammatory effect of CORCBs, mouse macrophage cells (RAW264.7) were used. 2×10^4 cells per well was seeded in 96-well plate with different concentrations of CORCBs. Cells were incubated in DMEM with 10% FBS at 37° C. and 5% CO2 for 24 hours. LPS (100 ng/mL) was then added and incubated for 4 additional hours. The media containing secreted inflammatory cytokines were collected and these cells were subjected to cell viability test to check their viability. TNF-α concentration in each sample was measured by ELISA assay."}, "[9]": {"test_system": "normal human skin fibroblast cells (Hs 895.Sk)", "conditions": "CORCB-1 (3 mM) + imatinib 20 or 40 μM, day 4 and 6", "method": "This was tested by using a chemotherapy drug, imatinib, in normal human skin fibroblast cells (Hs 895.Sk). The cultures were treated with 20 μM and 40 μM concentration of imatinib as controls to see their toxicity. Samples with mixtures of CORCB-1 and imatinib were also incubated and cell viability was determined on 2, 4, and 6 days. Media was exchanged every 2 days with fresh reagents."}, "[10]": {"test_system": "RAW264.7 cells", "method": "To test the anti-inflammatory effect of CORCBs, mouse macrophage cells (RAW264.7) were used. 2×10^4 cells per well was seeded in 96-well plate with different concentrations of CORCBs. Cells were incubated in DMEM with 10% FBS at 37° C. and 5% CO2 for 24 hours. LPS (100 ng/mL) was then added and incubated for 4 additional hours. The media containing secreted inflammatory cytokines were collected and these cells were subjected to cell viability test to check their viability.\nCytotoxicity of CORCBs was tested with RAW264.7 cells using Cell Titer Blue assay. In brief, cells were seeded at the density of 2×10^4 cells per well in 96-well plate with different concentrations of CORCBs. Cells were incubated in DMEM with 10% FBS at 37° C. and 5% CO2 for 24 hours. Cell Titer Blue reagent was added into the wells and incubated for 4 more hours in the normal cell growth conditions. The fluorescence signal of the converted reagent resulted from the viable cells was measured."}, "[11]": {"test_system": "fibroblast tumor cells (Hs 895.T) and normal fibroblast cells (Hs 895.Sk)", "method": "Cells were seeded at the density of 3×10^3 cells per well in 96-well plate with different concentrations of CORCBs in DMEM media without FBS, and incubated at 37° C. with 5% CO2 for 2 days."}, "[12]": {"assay": "CO released in the presence of H2O2, CO meter", "assay_type": "physicochemical", "experimental": "as §2\n(§3) The two tested are the common ROS formed naturally in the cells—a non-radical hydrogen peroxide (H2O2) and Fenton reagent which is a more reactive hydroxyl radical (.OH) formed from Fe^2+ and H2O2. Four mole of CORCB compounds were mixed in an aqueous solution with ROS and incubated in a sealed vessel. At respective times, the head space air was injected into the meter to read the amount of CO produced. For analysis by NMR spectroscopy, the reaction mixture was prepared in NMR tube in D2O solvent and incubated for the amount of time indicated."}, "[13]": {"assay": "CO released in the presence of Fenton reagent (hydroxyl radical), CO meter", "assay_type": "physicochemical", "conditions": "per 5 minutes", "experimental": "as §2\nas §3, with “All amine carboxyboranes express a faster CO release rate when incubated with the reactive oxygen species. The” for “The”, “indicated. While some CORCBs have increased amount of CO produced when treated with 3 times equivalents of H2O2, CORCB-1 produces similar or less amount of CO. In every sample, either acid or salt form, the hydroxyl radical extracts the amount of CO to a much higher magnitude within a very short amount of time.” for “indicated.”"}, "[14]": {"assay": "Decomposition (amine release) in the presence of H2O2 monitored by 1H NMR", "assay_type": "physicochemical", "experimental": "as §3\nThe reaction with H2O2 is slow-acting, therefore, NMR spectroscopy can be used for monitoring the rate."}, "[15]": {"conditions": "24 hours, 1.5 equivalents H2O2, 37° C."}},
  "data": [
    {"compound": "O=C(O)B[N+]12CN3CN(CN(C3)C1)C2", "note": "[CORCB-1, Hexamethylenetetramine carboxyborane]", "values": [
      {"measurement": "CO released at pH 2", "setting": "[1]; pH 2, 12 hours, 37° C.", "value": "more than 25%"},
      {"measurement": "CO release rate as a function of pH (in words)", "setting": "[1]; pH 2 to 12, 12 hours", "value": "the lowest in pH 7"},
      {"measurement": "normal cell growth, 6th day", "setting": "[2]", "value": 89, "unit": "%"},
      {"measurement": "viability at 2 days, 1 mM", "setting": "[3]", "value": "~100", "unit": "%"},
      {"measurement": "amount of TNF-α secreted, together with H2O2", "setting": "[4]", "value": "about 25%"},
      {"measurement": "percent CO released (Mb assay)", "setting": "[5]", "value": "approximately 1%"},
      {"measurement": "CO release rate", "setting": "[6]; 37° C.", "value": "approximately 1 % per hour"},
      {"measurement": "% CO liberated at 24 hours by CO meter", "setting": "[6]; 24 hours, 37° C.", "value": 23, "unit": "%"},
      {"measurement": "CO release rate at 24 hours, CO meter, Autodecomposition", "setting": "[6]; 24 hours, 37° C.", "value": 24, "unit": "%"},
      {"measurement": "Rate of % CO released by CORCBs, Autodecomposition", "setting": "[6]; per 24 hour", "value": "23.47 ± 0.38", "unit": "%"},
      {"measurement": "half-life at 12 mg/mL", "setting": "[7]", "value": 84, "unit": "h"},
      {"measurement": "Decomposition rate at 24 hours, 1H NMR, Autodecomposition", "setting": "[7]; 24 hours, 37° C.", "value": 19, "unit": "%"},
      {"measurement": "rate of auto-decomposition", "setting": "[7]; as stated in Example 10", "value": "around 20 % per day"},
      {"measurement": "rate of decomposition", "setting": "[7]; in the beginning, acid form, D2O, 37° C.", "value": 0.85, "unit": "% per hour"},
      {"measurement": "amount of TNF-α secreted, compound alone", "setting": "[8]; 1 mM, LPS only = 100%", "value": "about 80%"},
      {"measurement": "effect on LPS-induced TNF-α production (in words)", "setting": "[8]; 24 hours compound, then LPS 100 ng/mL 4 hours", "value": "inhibits the production of TNF-α"},
      {"measurement": "survival rate, mixture of imatinib and CORCB-1", "setting": "[9]", "value": "around 70%"},
      {"measurement": "cell viability after the TNF-α assay (in words)", "setting": "[10]", "value": "all cells were still healthy"},
      {"measurement": "selectivity of growth stimulation (in words)", "setting": "[11]; Hs 895.Sk versus Hs 895.T, 48 hours", "value": "more selective towards the normal fibroblast cells"},
      {"measurement": "viable cells compared with untreated cells", "setting": "[11]; human, 48 h", "value": "~180", "unit": "%"},
      {"measurement": "% CO produced by CO meter with H2O2", "setting": "[12]; 1.5 equivalents H2O2, 24 hours", "value": 12, "unit": "%"},
      {"measurement": "CO release rate at 24 hours, CO meter, With 1.5x H2O2", "setting": "[12]; [15]", "value": 12.10, "unit": "%"},
      {"measurement": "Rate of % CO released by CORCBs, With H2O2", "setting": "[12]; per 24 hour, H2O2 equivalents not given", "value": "20.86 ± 0.82", "unit": "%"},
      {"measurement": "Rate of % CO released by CORCBs, With Fenton Reagent", "setting": "[13]", "value": "60.90 ± 0.52", "unit": "%"},
      {"measurement": "% decomposition / free amine released by 1H NMR with H2O2", "setting": "[14]; 1.5 equivalents H2O2, 24 hours", "value": 51, "unit": "%"},
      {"measurement": "Decomposition rate at 24 hours, 1H NMR, With 1.5x H2O2", "setting": "[14]; [15]", "value": 50.90, "unit": "%"}
    ]}
  ]
}
